The values that follow come from ChEMBL document CHEMBL1201862, “PubChem BioAssay data set” (2004).

SMILES strings stand for the structures.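 Cultured in 96-well plates, cells were exposed to test compound for 48 hours across five concentrations. GI50: concentration for 50% inhibition of growth.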 Active and inactive are the calls of the source. Rule as the data show it: active = GI50 up to about 1.1 µM and inactive = higher.

Among the test systems are SF-539; SR; HOP-92; OVCAR-5; HCT-15; UACC-62; T47D; NCI-H226; OVCAR-8; SNB-75; MDA-MB-231; NCI-H23; SK-MEL-2; NCI-H460; HCC 2998; NCI/ADR-RES; RPMI-8226; EKVX; Malme-3M.
Common to all, as to assay: DTP human tumour cell line panel, 48 h

One may read the GI50 as the concentration giving 50% growth inhibition. `COC(=O)C(CCCCN)NC(C)=O.Cc1ccc(C(=O)Nc2ccc(S(=O)(=O)O)c3cc(S(=O)(=O)O)cc(S(=O)(=O)O)c23)cc1NC(=O)c1cccc(NC(=O)Nc2cccc(C(=O)Nc3cc(C(=O)Nc4ccc(S(=O)(=O)O)c5cc(S(=O)(=O)O)cc(S(=O)(=O)O)c45)ccc3C)c2)c1`: the GI50 was > 50 µM (inactive) in the experiment with SF-539; > 50 µM (inactive) in the experiment with SR; > 50 µM (inactive) in the experiment on HOP-92; > 50 µM (inactive) in the experiment on OVCAR-5; 23.9 µM in the experiment on HCT-15; > 50 µM (inactive) in the experiment on UACC-62. In addition, the GI50 in the experiment with T47D, in the experiment with NCI-H226, with OVCAR-8, in the experiment with SNB-75, with MDA-MB-231 and with NCI-H23 was > 50 µM (inactive) in each case. Besides, the GI50 in the experiment with SK-MEL-2, in the experiment with NCI-H460, in the experiment with HCC 2998, in the experiment on NCI/ADR-RES and with RPMI-8226 was > 50 µM (inactive) throughout.
As to `COC(=O)C(CCC1C=CN(S(=O)(=O)c2ccc(C)cc2)C1)/N=C/c1ccccc1` (configuration not stated), the GI50 was 38.6 µM (inactive) with SF-539; 23.4 µM (inactive) in the experiment with SR; 29.7 µM (inactive) with HOP-92; 42.2 µM (inactive) in the experiment with EKVX; 60.7 µM (inactive) with OVCAR-5; 88.5 µM in the experiment with HCT-15. Moreover, the GI50 in the experiment on UACC-62 is 32.8 µM (inactive); in the experiment on T47D, 47.6 µM (inactive); in the experiment with NCI-H226, 32.3 µM (inactive); in the experiment on OVCAR-8, 39.5 µM (inactive); in the experiment on SNB-75, 52.5 µM (inactive); in the experiment with MDA-MB-231, 39.6 µM (inactive). Also, the GI50 was 26.4 µM (inactive) in the experiment with NCI-H23; 20.1 µM (inactive) in the experiment on SK-MEL-2; 44.9 µM (inactive) in the experiment with NCI-H460; 43.1 µM (inactive) in the experiment with HCC 2998; > 100 µM (inactive) in the experiment with NCI/ADR-RES; 28.1 µM (inactive) in the experiment with RPMI-8226.
For `O=C(Oc1ccc2c(c1)CN(Cc1ccccc1)CO2)c1ccccc1`, the GI50 with SF-539 is 17.3 µM (inactive); in the experiment with SR, 18.2 µM (inactive); in the experiment with HOP-92, 12.7 µM (inactive); in the experiment on EKVX, 16.7 µM (inactive); in the experiment on OVCAR-5 it was 18.3 µM (inactive); in the experiment with HCT-15, 16.9 µM. For the same compound, the GI50 was 16.8 µM (inactive) in the experiment on UACC-62; 21.7 µM (inactive) in the experiment with T47D; 16.7 µM (inactive) in the experiment with OVCAR-8; 17.1 µM (inactive) in the experiment on SNB-75; 18.9 µM (inactive) in the experiment on Malme-3M; 19.2 µM (inactive) in the experiment on MDA-MB-231. Also, the GI50 is 15.8 µM (inactive) in the experiment with NCI-H23; 22 µM (inactive) with SK-MEL-2; 18.7 µM (inactive) in the experiment with NCI-H460; 14.5 µM (inactive) with HCC 2998; 23.4 µM (inactive) in the experiment with NCI/ADR-RES; 20.6 µM (inactive) with RPMI-8226.
With `CC(C)CSCC1OC(n2cnc3c(N)nccc32)C(O)C1O` (configuration not stated), the GI50 with SF-539 is > 100 µM (inactive); in the experiment on SR it was > 100 µM (inactive); in the experiment with HOP-92, > 72.9 µM (inactive); in the experiment with EKVX, 89.5 µM (inactive); in the experiment with OVCAR-5 it was > 100 µM (inactive); in the experiment on HCT-15, greater than 100 µM. Further, the GI50 with UACC-62 is > 100 µM (inactive); with T47D, > 100 µM (inactive); with NCI-H226, > 57.1 µM (inactive); in the experiment on OVCAR-8, > 100 µM (inactive); with SNB-75, > 100 µM (inactive); in the experiment on Malme-3M it was > 100 µM (inactive). For the same compound, the GI50 was > 100 µM (inactive) in the experiment with MDA-MB-231; > 100 µM (inactive) in the experiment on NCI-H23; > 100 µM (inactive) with SK-MEL-2; > 100 µM (inactive) in the experiment on NCI-H460; 27.9 µM (inactive) in the experiment on HCC 2998; > 100 µM (inactive) in the experiment on NCI/ADR-RES. For the same compound, the GI50 in the experiment on RPMI-8226 is > 67 µM (inactive).
For `N#Cc1nc(CCC(c2nc(C#N)c(N)o2)N2C(=O)c3ccccc3C2=O)oc1N` (configuration not stated), the GI50 in the experiment with SF-539 was > 100 µM (inactive); in the experiment with SR, < 0.01 µM (active); with HOP-92, > 100 µM (inactive); with EKVX, > 100 µM (inactive); in the experiment with OVCAR-5, > 100 µM (inactive); with HCT-15, greater than 100 µM. In addition, the GI50 in the experiment on UACC-62, in the experiment with T47D, in the experiment on NCI-H226, with SNB-75, in the experiment on Malme-3M and in the experiment with MDA-MB-231 was > 100 µM (inactive) each time. The GI50 with NCI-H23, in the experiment on SK-MEL-2, in the experiment with NCI-H460, in the experiment with HCC 2998, in the experiment on NCI/ADR-RES and in the experiment with RPMI-8226 was > 100 µM (inactive) each time.
On to `CC[C@@]12CCCN3CC[C@]4(c5cccc(OC)c5N(C(C)=O)[C@@H]4CC1)[C@H]32` [ASPIDOSPERMINE], for which the GI50 was 78.5 µM (inactive) in the experiment on SF-539; 27.7 µM (inactive) with SR; 35.6 µM (inactive) in the experiment on HOP-92; 44.2 µM (inactive) in the experiment on EKVX; > 100 µM (inactive) in the experiment with OVCAR-5; 79.3 µM in the experiment on HCT-15. Moreover, the GI50 was > 100 µM (inactive) in the experiment on UACC-62; > 100 µM (inactive) in the experiment with T47D; 93.8 µM (inactive) in the experiment on NCI-H226; > 100 µM (inactive) in the experiment with OVCAR-8; > 100 µM (inactive) in the experiment on Malme-3M; > 100 µM (inactive) in the experiment with MDA-MB-231. The GI50 in the experiment on NCI-H23 is > 100 µM (inactive); in the experiment with SK-MEL-2, 90.4 µM (inactive); in the experiment with NCI-H460, 54.3 µM (inactive); in the experiment on HCC 2998 it was 23 µM (inactive); in the experiment on NCI/ADR-RES, > 100 µM (inactive); in the experiment on RPMI-8226, 38.2 µM (inactive).
`CC(=O)OC1CC2(C)C(OC(C)=O)CC1C2(C)C` (configuration not stated): the GI50 in the experiment with SF-539 was > 100 µM (inactive); in the experiment on SR, > 100 µM (inactive); in the experiment with HOP-92, > 100 µM (inactive); in the experiment with OVCAR-5, > 100 µM (inactive); with HCT-15 it was greater than 100 µM; in the experiment with UACC-62, > 100 µM (inactive). Also, the GI50 in the experiment with T47D, in the experiment on NCI-H226, in the experiment on OVCAR-8, with SNB-75, with Malme-3M and in the experiment with MDA-MB-231 was > 100 µM (inactive) throughout. Moreover, the GI50 in the experiment on NCI-H23, in the experiment with NCI-H460, in the experiment with HCC 2998, in the experiment on NCI/ADR-RES and in the experiment on RPMI-8226 was > 100 µM (inactive) each time.
Consider `NCCCN1CCN(CCCNc2ccc3nnn4c5ccccc5c(=O)c2c34)CC1`, for which the GI50 in the experiment on SF-539 was 13.9 µM (inactive); with SR, > 100 µM (inactive); in the experiment on HOP-92 it was 18.8 µM (inactive); in the experiment on EKVX, 19.9 µM (inactive); in the experiment with OVCAR-5, 29.6 µM (inactive); in the experiment on HCT-15, 20.7 µM. For the same compound, the GI50 was 15.4 µM (inactive) in the experiment on UACC-62; 30.2 µM (inactive) in the experiment with T47D; 20 µM (inactive) in the experiment on OVCAR-8; 17.7 µM (inactive) in the experiment with SNB-75; 18.8 µM (inactive) in the experiment on Malme-3M; 13.1 µM (inactive) with MDA-MB-231. Further, the GI50 is 14.8 µM (inactive) in the experiment with NCI-H23; 18.7 µM (inactive) in the experiment with SK-MEL-2; 18.4 µM (inactive) in the experiment with NCI-H460; 11.9 µM (inactive) with HCC 2998; 55 µM (inactive) in the experiment on NCI/ADR-RES; 21.8 µM (inactive) in the experiment with RPMI-8226.
Consider `O=C(O)COc1cccc2ccccc(=O)c12`, for which the GI50 in the experiment on SF-539 was > 100 µM (inactive); in the experiment with SR, > 100 µM (inactive); in the experiment with HOP-92, > 100 µM (inactive); in the experiment on EKVX, > 100 µM (inactive); with OVCAR-5, > 100 µM (inactive); in the experiment on HCT-15, greater than 100 µM. Further, the GI50 in the experiment with UACC-62 is > 100 µM (inactive); in the experiment on T47D, > 100 µM (inactive); in the experiment with NCI-H226 it was > 100 µM (inactive); with OVCAR-8, > 100 µM (inactive); in the experiment on SNB-75 it was 0.0126 µM (active); in the experiment with Malme-3M, > 100 µM (inactive). The GI50 in the experiment on MDA-MB-231, with NCI-H23, in the experiment on SK-MEL-2, with NCI-H460, in the experiment on HCC 2998 and in the experiment on NCI/ADR-RES was > 100 µM (inactive) each time.
Turning to `Cc1ccc(S(=O)(=O)NC2C(=O)c3ccccc3C(=O)C2n2ccnc2)cc1` (configuration not stated), the GI50 in the experiment on SF-539 was > 100 µM (inactive); with SR, 67.8 µM (inactive); in the experiment with HOP-92, 35.8 µM (inactive); with EKVX, > 100 µM (inactive); with OVCAR-5, > 100 µM (inactive); in the experiment with HCT-15, greater than 100 µM. For the same compound, the GI50 is 33.1 µM (inactive) in the experiment on UACC-62; 17.5 µM (inactive) with T47D; > 100 µM (inactive) in the experiment on NCI-H226; > 100 µM (inactive) in the experiment with OVCAR-8; > 100 µM (inactive) in the experiment with SNB-75; 16 µM (inactive) with MDA-MB-231. The GI50 is 25.4 µM (inactive) with NCI-H23; > 100 µM (inactive) in the experiment on SK-MEL-2; > 100 µM (inactive) in the experiment with NCI-H460; > 100 µM (inactive) in the experiment on HCC 2998; > 100 µM (inactive) in the experiment with NCI/ADR-RES; > 100 µM (inactive) in the experiment on RPMI-8226.
As to `CCOP(=O)(OCC)/C(C#N)=C/c1cccn1CC(C)C`, the GI50 with SF-539 is > 100 µM (inactive); in the experiment on SR, > 100 µM (inactive); with HOP-92, > 100 µM (inactive); in the experiment on EKVX, > 100 µM (inactive); in the experiment on OVCAR-5 it was > 100 µM (inactive); in the experiment with HCT-15 it was greater than 100 µM. The GI50 in the experiment on UACC-62 was > 100 µM (inactive); in the experiment on T47D it was 36.6 µM (inactive); in the experiment with NCI-H226, 35.7 µM (inactive); in the experiment with OVCAR-8 it was > 100 µM (inactive); in the experiment on SNB-75 it was > 100 µM (inactive); in the experiment on Malme-3M, > 100 µM (inactive). Moreover, the GI50 was 57.3 µM (inactive) in the experiment with MDA-MB-231; > 100 µM (inactive) with NCI-H23; > 100 µM (inactive) in the experiment with SK-MEL-2; > 100 µM (inactive) in the experiment on NCI-H460; > 100 µM (inactive) in the experiment with HCC 2998; > 100 µM (inactive) in the experiment with NCI/ADR-RES.
